Assay results published in patent publication US8471004B2, “Bicyclic compounds” (Hoffman-La Roche Inc., priority 2009, dated 2013).

target: T1, human chemokine receptor 2 isoform B (Homo sapiens, UniProt P41597); test: Calcium mobilization assay (CHOK1-CCR2B-A5 cells, FLIPR, MCP-1 stimulated); type: cell-based; details: Ca mobilisation assay for CCR2, antagonist activity, 50% inhibition of specific calcium increases after 20 nM MCP-1
T1 construct: host or cells: CHOK1-CCR2B-A5 (CHO-K1)
T1 sequence (P41597 1-360 isoform P41597-2): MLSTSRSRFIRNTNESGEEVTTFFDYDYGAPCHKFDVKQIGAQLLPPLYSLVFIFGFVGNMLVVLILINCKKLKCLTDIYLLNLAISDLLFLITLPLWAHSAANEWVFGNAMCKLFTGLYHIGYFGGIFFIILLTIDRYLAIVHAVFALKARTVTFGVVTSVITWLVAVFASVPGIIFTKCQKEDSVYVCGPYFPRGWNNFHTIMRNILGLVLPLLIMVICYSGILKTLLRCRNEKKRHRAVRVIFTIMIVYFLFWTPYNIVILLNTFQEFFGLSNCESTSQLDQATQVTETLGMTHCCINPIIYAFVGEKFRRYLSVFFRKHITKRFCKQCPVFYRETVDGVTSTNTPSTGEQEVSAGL
Method: CHOK1-CCR2B-A5 cells (from Euroscreen) stably overexpressing the human chemokine receptor 2 isoform B were cultured in Nutrient Hams F12 medium supplemented with 5% FBS, 100 U/ml penicillin, 100 μg/ml streptomycin, 400 μg/ml G418 and 5 μg/ml puromycin.
For the assay cells were grown overnight in 384-well black clear flat bottom polystyrene plates (Costar) at 37° C. at 5% CO2. After washing with DMEM, 20 mM Hepes, 2.5 mM probenecid, 0.1% BSA (DMEM assay buffer) cells were loaded with 4 μM Fluo-4 in the same DMEM assay buffer for 2 hours at 30° C. Excess dye was removed and cells were washed with DMEM assay buffer. 384-well compound plates were prepared with DMEM assay buffer/0.5% DMSO with or without various concentrations of test compounds. Usually compounds were tested for agonist and antagonist activity.
Test compounds were added to the assay plate and agonist activity was monitored as fluorescence for 80 seconds with a FLIPR (488 nm excitation; 510-570 nm emission; Molecular Devices). After 20-30 min. of incubation at 30° C., 20 nM MCP-1 (R&D; Roche) was added and fluorescence was monitored again for 80 seconds. Increases in intracellular calcium are reported as maximum fluorescence after agonist exposure minus basal fluorescence before exposure. Antagonist activity is indicated as inhibitor concentration required for 50% inhibition of specific calcium increases.

Compound	IC50 [nM]
C[C@H]1C(=O)N2[C@H](CCN3CCC4(CC4)[C@H](O)C3)CCC[C@@H]2CN1C(=O)Nc1ccc(Cl)c(Cl)c1 (racemic) [Example 38, (3S,9aR)-6-[2-((S)-4-Hydroxy-6-aza-spiro[2.5]oct-6-yl)-ethyl]-3-methyl-4-oxo-octahydro-pyrido[1,2-a]pyrazine-2-carboxylic acid (3,4-dichloro-phenyl)-amide]	8.8
C[C@H]1C(=O)N2[C@@H](CCN3CCC4(CC4)[C@H](O)C3)CO[C@H]2CN1C(=O)Nc1ccc(Cl)c(Cl)c1 [Example 1, (3S,6S,8aS)-3-[2-((S)-4-Hydroxy-6-aza-spiro[2.5]oct-6-yl)-ethyl]-6-methyl-5-oxo-hexahydro-oxazolo[3,2-a]pyrazine-7-carboxylic acid (3,4-dichloro-phenyl)-amide]	5.8
C[C@H]1C(=O)N2[C@@H](CCN3CCC4(CC4)[C@H](O)C3)CO[C@@H]2CN1C(=O)Nc1ccc(Cl)c(Cl)c1 [Example 2, (3S,6S,8aR)-3-[2-((S)-4-hydroxy-6-aza-spiro[2.5]oct-6-yl)-ethyl]-6-methyl-5-oxo-hexahydro-oxazolo[3,2-a]pyrazine-7-carboxylic acid (3,4-dichloro-phenyl)-amide]	2.2
C[C@H]1C(=O)N2C(CN1C(=O)Nc1cccc(Cl)c1)OC[C@@H]2CCN1CCC2(CC2)[C@H](O)C1 (stereo partly drawn) [Example 3, (3S,6S)-3-[2-((S)-4-Hydroxy-6-aza-spiro[2.5]oct-6-yl)-ethyl]-6-methyl-5-oxo-hexahydro-oxazolo[3,2-a]pyrazine-7-carboxylic acid (3-chloro-phenyl)-amide]	60.4
C[C@H]1C(=O)N2C(CN1C(=O)Nc1ccc(F)c(Cl)c1)OC[C@@H]2CCN1CCC2(CC2)[C@H](O)C1 (stereo partly drawn) [Example 4, (3S,6S)-3-[2-((S)-4-Hydroxy-6-aza-spiro[2.5]oct-6-yl)-ethyl]-6-methyl-5-oxo-hexahydro-oxazolo[3,2-a]pyrazine-7-carboxylic acid (3-chloro-4-fluoro-phenyl)-amide]	16
C[C@H]1C(=O)N2C(CN1C(=O)Nc1cccc(C(F)(F)F)c1)OC[C@@H]2CCN1CCC2(CC2)[C@H](O)C1 (stereo partly drawn) [Example 5, (3S,6S)-3-[2-((S)-4-Hydroxy-6-aza-spiro[2.5]oct-6-yl)-ethyl]-6-methyl-5-oxo-hexahydro-oxazolo[3,2-a]pyrazine-7-carboxylic acid (3-trifluoromethyl-phenyl)-amide]	67.9
C[C@H]1C(=O)N2[C@@H](CCN3CCC4(CC4)[C@H](O)C3)CO[C@H]2CN1C(=O)Nc1ccc(F)c(Cl)c1 [Example 6, (3S,6S,8aS)-3-[2-((S)-4-Hydroxy-6-aza-spiro[2.5]oct-6-yl)-ethyl]-6-methyl-5-oxo-hexahydro-oxazolo[3,2-a]pyrazine-7-carboxylic acid (3-chloro-4-fluoro-phenyl)-amide]	72
C[C@H]1C(=O)N2[C@@H](CCN3CCC4(CC4)[C@H](O)C3)CO[C@@H]2CN1C(=O)Nc1ccc(F)c(Cl)c1 [Example 7, (3S,6S,8aR)-3-[2-((S)-4-hydroxy-6-aza-spiro[2.5]oct-6-yl)-ethyl]-6-methyl-5-oxo-hexahydro-oxazolo[3,2-a]pyrazine-7-carboxylic acid (3-chloro-4-fluoro-phenyl)-amide]	25
C[C@H]1C(=O)N2[C@@H](CCN3CCC4(CC4)[C@H](O)C3)CO[C@H]2CN1C(=O)Nc1cccc(C(F)(F)F)c1 [Example 8, (3S,6S,8aS)-3-[2-((S)-4-Hydroxy-6-aza-spiro[2.5]oct-6-yl)-ethyl]-6-methyl-5-oxo-hexahydro-oxazolo[3,2-a]pyrazine-7-carboxylic acid (3-trifluoromethyl-phenyl)-amide]	146
C[C@H]1C(=O)N2[C@@H](CCN3CCC4(CC4)[C@H](O)C3)CO[C@@H]2CN1C(=O)Nc1cccc(C(F)(F)F)c1 [Example 9, (3S,6S,8aR)-3-[2-((S)-4-hydroxy-6-aza-spiro[2.5]oct-6-yl)-ethyl]-6-methyl-5-oxo-hexahydro-oxazolo[3,2-a]pyrazine-7-carboxylic acid (3-trifluoromethyl-phenyl)-amide]	68.9
